{
  "source": "patent US20160113911A1",
  "about": "“METHODS AND COMPOSITIONS FOR THE TREATMENT OF CANCER” (THE GENERAL HOSPITAL CORPORATION, priority 2013, published 2016)",
  "assay_type_in_all_cases": "cell-based, human",
  "key": {"[1]": {"test_system": "HEK 293T cells", "test": "MTT proliferation and viability assay", "conditions": "JIB-04 vs vehicle, 48h", "experimental": "For tissue culture and generation of stable cell lines see (Black et al., 2010). Rapamycin (LC Laboratories) and AZD8055 (Selleckchem) were used at indicated concentrations. […] JIB-04 (Xcessbio) was used at a final concentration of 250 nM. For the translation assays, DMEM depleted of Methionine and Cysteine (Life Technologies 21013-024) was used.\nMTT assays were performed following supplier's instructions from the Cell Proliferation Kit I™ (MTT) from Roche. Briefly, 1×10^4 cells were seeded per well of a 96 well plate and grown for 24h before treatment. Forty-eight hours later, cells were assayed."}, "[2]": {"test_system": "HEK 293T cells", "test": "Monitored cell proliferation assay (xCELLigence growth curves, doubling time)", "conditions": "HEK293T", "experimental": "Seventy two hours post transfection 1×10^4 HEK 293T cells were seeded per well of a 96 well plate, and then treated after 24h. Cell proliferation was monitored with an xCELLigence system (Roche) (Vistejnova et al., 2009)."}, "[3]": {"test_system": "overall translation", "test": "Translation assay (AHA incorporation, Click-IT)", "conditions": "HEK 293T; 24h; 250 nM JIB-04 and 0.1 ng/ml Rapamycin", "experimental": "Translation assays were performed following supplier's instructions from Click-IT™ Metabolic Labeling Reagents for Proteins (Life Technologies). Cells were incubated in presence of DMEM without Cysteine and Methionine for 1 h, then grown in presence of 50 μM AHA (L-azidohomoalanine, Life Technologies C10102) for 2h, harvested and washed extensively with PBS. Cells were lysed in 1% SDS in 50 mM Tris pH8 with 10% Glycerol and sonicated using a bath sonicator (QSonica™ Q800R) for 30 min. The Click-IT reactions were performed following the supplier's instructions from Click-IT™ Protein Reaction Buffer Kit (Life Technologies). Briefly, 50 μg to 100 μg of lysates were used per reaction with 40 μM Alkyne-Biotin (Life Technologies B10185), and 10 μg were assayed by western blot using a Streptavidin antibody conjugated to HRP."}, "[4]": {"test_system": "translation initiation", "test": "Polysome profiles", "conditions": "293T cells"}, "[5]": {"test_system": "1q12h copy gain in RPE cells", "test": "FISH for site-specific copy gain", "conditions": "RPE cells; 1% O2 24 hours; JIB-04 62.5 nM or 2 mM succinate pre-treatment, or overexpression", "experimental": "FISH was performed as described in (Manning et al., 2010). Probes for 1q12h, 1q telomere, and chromosome 2, 6, 8, and X alpha satellite were purchased from Rainbow Scientific. Probes for 1q12 (RP11-80L2), Xq13.2 (RP11-451A22), Xq13.1 (RP11-177A4) were purchased as BAC clones from Children's Hospital Oakland Research Institute (CHORI BacPac) FISH verified clone repository. Oligonucleotide probes for 1q21.2 (BCL9) and 1q23.3 were purchased from Agilent (SureFISH). BACS were prepared utilizing PureLink HiPure Plasmid Filter Maxiprep kit (Life Technologies) using the recommended modified wash buffer. Probes were nick translated (Abbot Molecular Kit) in the presence of fluorescently labeled dTTP (Enzo Life Science). Images of multiple planes of fields of nuclei were acquired on an Olympus IX81 Spinning Disk Microscope and analyzed using Slidebook 5.0 software. We used a conservative scoring metric for copy gain. Any foci that were touching were scored as a single foci to prevent increased numbers due to normally replicated foci. For RPE cells, copy gain was scored as any cell with 3 or more distinct foci. For 293T cells, copy gain was scored for any cell with 5 or more distinct foci. For RPE cells each experiment includes at least one replicate from the two different polyclonal stable cell preparations. At least 100 cells for each replicate were scored for all experiments except analysis of single cell clones.\nCells were plated onto culture dishes and allowed to adhere for 20-24 hrs in normoxia (5% CO2, 21% O2, and 74% N2). For hypoxic treatment, cells were maintained in a HERA Cell 150™ incubator (Thermo Scientific) flushed with 5% CO2, 1% O2 or 4% O2, and balanced with N2 for the duration of the experiment. Incubator calibrations were carried out by Bianchi Associates Calibrations/Verifications.\nTo release, cells were washed twice with culture medium pre-conditioned in normoxia or hypoxia, and supplied with fresh pre-conditioned media. For JIB-04 treatment, normoxic cells were pre-treated with 62.5 nM JIB-04 (Xcessbio) for 24 hrs, then treated again with JIB-04 and either transferred to 1% O2 or maintained in normoxia for an additional 24 hrs. Succinate was administered at a final concentration of 2 mM and cells were either maintained in normoxia for 72 hrs or maintained in normoxia for 48 hrs prior to being transferred to 1% O2 for 24 hrs.\nFISH was performed as described in (Black et al., 2013; Manning et al., 2010). Probes for 1q12h, 1q telomere, chromosome 8 centromere (alpha satellite), and X centromere (alpha satellite) were purchased from Rainbow Scientific. Probes for Xq13.1 (RP11-177A4), Zebrafish BCL9 (CH73-15J19) and Zebrafish IGBP1 (CH73-223D24) were purchased as BAC clones from Children's Hospital Oakland Research Institute (CHORI BacPac) clone repository. Probes for 1q21.2 (BCL9) and 1q23.3 were purchased from Agilent (SureFISH).\nFISH was performed as described in (Black et al., 2013; Manning et al., 2010). Probes for 1q12h, 1q telomere, chromosome 8 centromere (alpha satellite), and X centromere (alpha satellite) were purchased from Rainbow Scientific. Probes for Xq13.1 (RP11-177A4), Zebrafish BCL9 (CH73-15J19) and Zebrafish IGBP1 (CH73-223D24) were purchased as BAC clones from Children's Hospital Oakland Research Institute (CHORI BacPac) clone repository. Probes for 1q21.2 (BCL9) and 1q23.3 were purchased from Agilent (SureFISH). BACS were prepared utilizing PureLink HiPure™ Plasmid Filter Maxiprep kit (Life Technologies) using the recommended modified wash buffer. Probes were nick translated (Abbot Molecular Kit) in the presence of fluorescently labeled dTTP (Enzo Life Science). Images of multiple planes of fields of nuclei were acquired on an Olympus IX81 T Spinning Disk Microscope and analyzed using Slidebook™ 5.0 software. A conservative scoring metric was used for copy gain. Any foci that were touching were scored as a single copy to prevent increased numbers due to normally replicated foci."}, "[6]": {"test_system": "KDM4A", "test": "KDM4A protein levels by western blot", "conditions": "RPE cells; 1% O2", "experimental": "Western blot analyses were performed according to (Black et al., 2010).\nWestern blots were performed as in (Black et al., 2010). Briefly, adherent cells were either scraped directly into PBS, or washed with PBS, trypsinized and collected by centrifuging at 2,000 RPM for 5 minutes. For preparation of whole-cell lysates, cell pellets were washed once in ice-cold PBS and resuspended in RIPA lysis buffer [50 mM Tris pH 7.4, 150 mM NaCl, 0.25% Sodium Deoxycholate, 1% NP40, 1 mM EDTA, 10% Glycerol] supplemented with complete protease inhibitor and PhosSTOP™ phosphatase inhibitor cocktails (Roche). Cells were lysed on ice for 15 minutes and immediately frozen at −80° C. for 10 min. Lysates were subsequently sonicated at 70% amplitude for 15 minutes in a QSonica Q800R™ and cleared of cell debris by centrifuging at 12,000 RPM for 15 minutes, before being analyzed by western blotting. For HIF1α expression, adherent cells were washed twice with ice-cold PBS and scraped directly in warmed 1× Laemmli buffer. Samples were sonicated at 70% amplitude for 15 minutes and boiled immediately prior to western blotting."}, "[7]": {"test_system": "RPE cells", "test": "Flow cytometry cell cycle analysis", "conditions": "normoxia and hypoxia", "experimental": "Asynchronously growing, or G1/S arrested cells were prepared and fixed as in (Black et al., 2010). Cells were stained with 10 μM EdU for 1 hour prior to collection. Cell cycle was analyzed by PI staining or EdU incorporation using Click-IT EdU™ Flow Cytometry Assay Kit (Life Technologies). Flow cytometry of CD4+ T cells and cell cycle distribution were analyzed using a BD FACS ARIA II™."}},
  "note": "“Also recorded” adds a separate entry of the source.",
  "data": [
    {"smiles": "Clc1ccc(N/N=C(\\c2ccccc2)c2ccccn2)nc1", "note": "[JIB-04]", "values": [
      {"measurement": "sensitivity to Rapamycin and AZD8055 upon JIB-04 co-treatment", "setting": "[1]", "result": "enhanced the effect of both Rapamycin and AZD8055; also recorded: more sensitive to Rapamycin and AZD8055 than cells treated with vehicle"},
      {"measurement": "cell sensitivity to Rapamycin (doubling time between 5 h and 35 h)", "setting": "[2]; 250 nM JIB-04 and 1 ng/ml of Rapamycin", "result": "increases cell sensitivity to Rapamycin"},
      {"measurement": "cell sensitivity to AZD8055 (doubling time between 5 h and 35 h)", "setting": "[2]; 250 nM JIB-04 and 50 nM of AZD8055", "result": "increases cell sensitivity to AZD8055"},
      {"measurement": "overall translation with JIB-04 and Rapamycin", "setting": "[3]", "result": "enhanced the alteration of translation observed after Rapamycin treatment"},
      {"measurement": "polysome profile, JIB-04 with Rapamycin", "setting": "[4]; JIB-04 250 nM and Rapamycin 0.1 ng/ml", "result": "can sensitize cells to Rapamycin by increasing their translation initiation defect"},
      {"measurement": "polysome profile, JIB-04 alone", "setting": "[4]; JIB-04 250 and 500 nM", "result": "leads to a translation initiation defect"},
      {"measurement": "hypoxia-dependent copy gain of 1q12h", "setting": "[5]", "result": "did significantly reduce hypoxia-dependent copy gain of 1q12h"},
      {"measurement": "KDM4A protein levels in hypoxia", "setting": "[6]", "result": "did not substantially alter KDM4A protein levels in hypoxia"},
      {"measurement": "cell cycle profile", "setting": "[7]", "result": "did not result in significant differences in cell cycle between normoxic and hypoxic cells"}
    ]}
  ]
}
